Measurements: patent US5071955A, “Octopeptide exhibiting antimypertensive activity” (Nippon Suisan Kaisha, Ltd., priority 1988, dated 1991)
Peptide text beside a SMILES is read from it.

Tests used:
Wistar rats = experiment: Intravenous LD50 in Wistar rats; assay type: in vivo; conditions: in physiological saline, 6 week old male and female Wistar rats, 2 week observation
Method: (§1) The peptide of formula (I) prepared in Example 2 was dissolved in physiological saline.
(§2) Various concentrations of the peptide in physiological saline were intravenously administered to test animal groups each consisting of 6 week old male (10/group) or female (10/group) ICR mice, or 6 week old male (10/group) or female (10/group) Wistar rats. The LD50 value was determined after a 2 week observation period.

ICR mice = experiment: Intravenous LD50 in ICR mice; assay type: in vivo; conditions: in physiological saline, 6 week old male and female ICR mice, 2 week observation
Method: as §1, §2

[1] = molecular target: Angiotensin I converting enzyme (ACE) (Homo sapiens, UniProt P12821); experiment: Angiotensin I converting enzyme (ACE) inhibitory activity, method of Cushman and Cheung; assay type: biochemical; conditions: Hip-His-Leu substrate, pH 8.3, 37° C., 30 min
Method: A prescribed amount of sample was added to a solution composed of 1-10 mU ACE, 2.5 mM Hip-His-Leu substrate (produced by Peptide Research Institute), 100 mM potassium-phosphate buffer (pH 8.3), and 300 mM NaCl. 0.25 ml of this mixture was incubated at 37° C. for 30 min, and the enzymatic reaction was stopped by adding 0.25 ml of 1N HCl. 1.5 ml of ethylacetate was then added and the mixture was vigorously shaken for 10 second, following which the hippuric acid produced was extracted. […] A blank (ODsbl) was made by adding 1N HCl prior to incubation, and the difference in absorbance, ODs-ODsbl, was determined. […] ACE inhibitory activity was calculated using the following equation: [formula]

Sequence of Angiotensin I converting enzyme (ACE) (P12821 30-1306, species assumed): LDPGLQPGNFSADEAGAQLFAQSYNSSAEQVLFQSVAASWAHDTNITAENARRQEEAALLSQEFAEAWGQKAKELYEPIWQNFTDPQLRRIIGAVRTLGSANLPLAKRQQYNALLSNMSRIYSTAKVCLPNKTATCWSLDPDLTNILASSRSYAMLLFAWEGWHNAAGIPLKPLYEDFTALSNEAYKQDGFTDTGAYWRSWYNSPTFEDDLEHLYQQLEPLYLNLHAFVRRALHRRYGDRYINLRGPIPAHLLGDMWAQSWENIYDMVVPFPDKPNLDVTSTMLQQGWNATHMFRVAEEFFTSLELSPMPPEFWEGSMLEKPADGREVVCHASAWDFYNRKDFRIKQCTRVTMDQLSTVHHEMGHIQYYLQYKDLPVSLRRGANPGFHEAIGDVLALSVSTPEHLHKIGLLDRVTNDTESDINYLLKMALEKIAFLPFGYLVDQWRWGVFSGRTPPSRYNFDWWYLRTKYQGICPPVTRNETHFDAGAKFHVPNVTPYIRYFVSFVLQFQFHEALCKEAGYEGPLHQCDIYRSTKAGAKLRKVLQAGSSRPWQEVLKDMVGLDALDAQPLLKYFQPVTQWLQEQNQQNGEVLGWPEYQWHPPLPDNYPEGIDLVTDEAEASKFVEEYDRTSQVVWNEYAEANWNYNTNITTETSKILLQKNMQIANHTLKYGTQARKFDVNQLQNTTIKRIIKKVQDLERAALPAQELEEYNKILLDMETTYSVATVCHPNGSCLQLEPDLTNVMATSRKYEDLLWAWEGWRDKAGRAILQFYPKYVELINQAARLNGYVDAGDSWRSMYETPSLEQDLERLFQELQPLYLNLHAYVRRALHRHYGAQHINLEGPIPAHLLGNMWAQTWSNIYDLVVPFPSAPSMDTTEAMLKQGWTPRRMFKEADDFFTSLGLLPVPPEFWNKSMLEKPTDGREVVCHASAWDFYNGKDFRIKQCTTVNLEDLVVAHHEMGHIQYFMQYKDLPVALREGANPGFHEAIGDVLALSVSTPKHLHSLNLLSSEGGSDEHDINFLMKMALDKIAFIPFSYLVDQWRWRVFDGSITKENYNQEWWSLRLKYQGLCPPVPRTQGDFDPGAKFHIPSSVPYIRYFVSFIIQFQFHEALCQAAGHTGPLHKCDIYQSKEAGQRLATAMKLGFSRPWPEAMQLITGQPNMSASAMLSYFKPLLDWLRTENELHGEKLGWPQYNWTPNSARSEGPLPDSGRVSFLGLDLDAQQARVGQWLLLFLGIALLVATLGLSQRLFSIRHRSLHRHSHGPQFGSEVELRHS

CC[C@H](C)[C@H](NC(=O)[C@H](Cc1c[nH]cn1)NC(=O)[C@@H](NC(=O)[C@@H]1CCCN1)[C@@H](C)O)C(=O)N[C@@H](CCCCN)C(=O)N[C@@H](Cc1c[nH]c2ccccc12)C(=O)NCC(=O)N[C@@H](CC(=O)O)C(=O)O [Peptide (I), Pro-Thr-His-Ile-Lys-Trp-Gly-Asp] (H-PTHIKWGD-OH)
LD50 (Wistar rats): greater than 10 mg/kg
LD50 (ICR mice): greater than 10 mg/kg
IC50 ([1]; sample origin: Fish): 700 nM
IC50 ([1]; sample origin: Peptide Synthesis): 600 nM

CC(C)C[C@H](NC(=O)[C@@H](NC(=O)[C@@H](N)CC(C)C)C(C)C)C(=O)O [Tripeptide, Leu-Val-Leu, reference compound] (H-Leu-Val-Leu-OH)
IC50 ([1]; comparison samples of Table 1): 1700 nM
